Measurements: PubChem BioAssay (NCI)
“And” between values parts separate entries of the source, which are not always exact repeats. Identical values can stand only once.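 Grown in 96-well plates, cells were treated for 48 hours with each compound at five concentrations. Insufficient inhibition: endpoint recorded as highest concentration tested. The concentration for 50% growth inhibition is given as GI50. TGI is the concentration that stops growth completely.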

Experiments:
Test in all cases: NCI anticancer screen, dose series, 48 h
HCT-116 colon = tested on: HCT-116 colon
HOP-62 NSCLC = tested on: HOP-62 NSCLC
KM12 colon = tested on: KM12 colon
LOX IMVI melanoma = tested on: LOX IMVI melanoma
M14 melanoma = tested on: M14 melanoma
MOLT-4 leukemia = tested on: MOLT-4 leukemia
SF-268 CNS = tested on: SF-268 CNS
SW-620 colon = tested on: SW-620 colon
UACC-62 melanoma = tested on: UACC-62 melanoma
PC-3 prostate = tested on: PC-3 prostate

SMILES	TGI (HCT-116 colon)	GI50 (HOP-62 NSCLC)	TGI (HOP-62 NSCLC)	GI50 (KM12 colon)	TGI (KM12 colon)	GI50 (LOX IMVI melanoma)	TGI (LOX IMVI melanoma)	GI50 (M14 melanoma)	TGI (M14 melanoma)	GI50 (MOLT-4 leukemia)	TGI (MOLT-4 leukemia)	TGI (SF-268 CNS)	GI50 (SW-620 colon)	TGI (SW-620 colon)	GI50 (UACC-62 melanoma)	TGI (UACC-62 melanoma)	GI50 (HCT-116 colon)	GI50 (PC-3 prostate)	TGI (PC-3 prostate)	GI50 (SF-268 CNS)
C[C@@]12CCCc3coc(c31)C(=O)c1cc3c(cc12)C(=O)C=CC3=O	> 1 µM	> 100 µM	> 100 µM	> 1 µM	> 1 µM and 41.8 µM	> 1 µM	> 1 µM and 35.1 µM	> 1 µM	> 1 µM and 29.7 µM	> 1 µM	> 1 µM and 6.16 µM	> 1 µM	> 1 µM	> 1 µM and 20.1 µM	> 1 µM	> 1 µM and 32.1 µM				
CN1NC(=Nc2ccccc2)Sc2c1cnn(-c1ccccc1)c2=O	> 100 µM		> 100 µM		> 100 µM		> 100 µM		> 100 µM		> 100 µM			> 100 µM		> 100 µM				
COc1ccc(Nc2c3ccccc3nc3occ(Cl)c23)cc1	3.29 µM	< 0.0156 µM	19.1 µM	< 0.01 µM	4.1 µM			0.0287 µM	19.5 µM	0.0266 µM	> 44.5 µM	21.5 µM	< 0.01 µM	18.4 µM	0.0104 µM	42.4 µM	< 0.01 µM	< 0.01 µM	13.6 µM	0.0368 µM
C=CCNC(=O)N(CCC)CCCCC(NC(C)=O)C(=O)NCc1ccccc1 (configuration not stated)			> 100 µM		> 100 µM		> 100 µM		> 100 µM		> 100 µM	> 100 µM		> 100 µM		> 100 µM				
COC(=O)CCC(=O)CC1CC(=O)C2CCCN12 (configuration not stated)	> 100 µM		> 100 µM		> 100 µM		> 100 µM		> 100 µM		> 100 µM	> 100 µM		> 100 µM		> 100 µM				
Cc1cc2c(cc1Cl)SC(=Nc1ccc(Cl)cc1)N(S(=O)(=O)c1ccccc1)S2(=O)=O	21.5 µM	13.5 µM	26.4 µM	20 µM	50.4 µM	1.58 µM	7.18 µM	12.6 µM	27.6 µM			34.8 µM	5.63 µM	17.4 µM	11.6 µM	23.8 µM	9.78 µM	10.9 µM	23.1 µM	13.8 µM
COc1cc2cccc(N=Cc3cccc(OC)c3OC(C)C)c2cc1OC			80.3 µM		57.2 µM				35.9 µM		69.5 µM	91.4 µM		48.8 µM		45.6 µM				
N=C(N)SCc1cccc(-c2nc3ccccc3c(=O)o2)c1	> 100 µM		> 100 µM		> 100 µM		> 100 µM		> 100 µM			> 100 µM		> 100 µM		> 100 µM			> 100 µM	
CC(C)CCCC(C)[C@H]1CCC2[C@H]3C(CC[C@@]21C)[C@@]1(C)CCC=C[C@]12C[C@@H]2[C@@H]3O (some centres not stated)	> 100 µM		> 100 µM		> 100 µM		> 100 µM		> 100 µM		> 100 µM	> 100 µM		> 100 µM		> 100 µM				
C1C[OH+]CCNCC[OH+]CC[OH+]CCN1.[Cl-].[Pt+4]	> 100 µM	> 100 µM	> 100 µM	> 100 µM	> 100 µM	> 100 µM	> 100 µM	> 100 µM	> 100 µM	> 100 µM	> 100 µM	> 100 µM	> 100 µM	> 100 µM	> 100 µM	> 100 µM	> 100 µM			> 100 µM
O=C1c2ccc3c4ccccc4n(Cc4ccccc4)c3c2C(=O)N1c1ccccc1	30 µM		> 57.6 µM		30.6 µM		31.4 µM		27.9 µM		9.54 µM	40.8 µM		20.1 µM		31.7 µM				
Nc1nc(CCl)nc(Nc2ccccc2)n1	43.5 µM		38.8 µM		30.1 µM				32.8 µM		37.2 µM	45.2 µM		46.3 µM		34.6 µM				
COC(=O)/C(C#N)=C1\CCC(O)N1 (configuration not stated)	> 100 µM		> 100 µM		> 100 µM		> 100 µM		> 100 µM		> 100 µM	> 100 µM		> 100 µM		> 100 µM				
CC(C)N=c1cc2n(-c3ccc(Cl)cc3)c3ccccc3nc-2cc1Nc1ccc(Cl)cc1		4.71 µM and 4.81 µM	> 100 µM	1.18 µM	> 50 µM			1.01 µM and 2.29 µM	2.31 µM and 5.62 µM	2.56 µM	> 100 µM	> 50 µM	2.96 µM	> 100 µM	1.96 µM	> 50 µM		0.891 µM and 1.9 µM	> 50 µM	1.73 µM
CC(=O)c1sc(-c2nc(C)c(C(=O)/C=C\c3ccc(/C=C\C(=O)c4sc(-c5nc(C)c(C(C)=O)s5)nc4C)cc3)s2)nc1C	> 100 µM		> 100 µM		> 100 µM		> 100 µM		> 100 µM		> 100 µM	> 100 µM		> 100 µM		> 100 µM				
Cc1cc(NS(=O)(=O)c2ccc(Nc3c4ccccc4nc4c(C(=O)NCCN(C)C)cccc34)cc2)no1	> 100 µM		6.57 µM		> 100 µM		31.3 µM		> 100 µM			16.4 µM		> 100 µM		14.4 µM				
CC(=O)/C=C/c1ccc(C#Cc2ccccc2)s1	14.9 µM	19.7 µM	33.8 µM	6.1 µM	36.7 µM	18 µM	31.9 µM	15.7 µM	29.1 µM			48.9 µM	19.4 µM	38.1 µM	17.5 µM	31.5 µM	3.67 µM	15.7 µM	29 µM	17.4 µM
Cc1ccc(S(=O)(=O)NCCNc2nccc(-c3c(-c4ccc(F)cc4)nc4sccn34)n2)cc1	> 100 µM	13.5 µM	29.3 µM			4.86 µM	> 100 µM					37.4 µM			3.95 µM	> 100 µM	3.88 µM			5.58 µM
